According to patent US20220372040A1, “METTL3 MODULATORS” (Accent Therapeutics, Inc., priority 2020, published 2022):
pIC50: −log10 of the molar value. Like-named read-outs stand apart in the source and are kept apart here.

Columns and labels:
METTL3/METTL14 = METTL3/METTL14 (Homo sapiens, UniProt Q86U44); assay: METTL3-14 standard enzyme assay (3H-SAM flashplate scintillation); format: biochemical; details: METTL3/METTL14 2.5 nM, RNA 100 nM, 3H-SAM 100 nM, 30 min
How it was run: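 Radiometric methylation readout: biotinylated RNA substrate UCUGGACUAAA and 3H-SAM, each 100 nM final, reacted 30 min at ambient temperature with 2.5 nM enzyme complex after 5 min compound preincubation (HEPES pH 7.5 buffer, KCl, MgCl2, DTT). Excess unlabelled SAM (15 μM) stopped reactions before streptavidin flashplate capture.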

PRMT5-MEP50 = PRMT5-MEP50 (Homo sapiens, UniProt O14744); assay: PRMT5 assay (3H-SAM flashplate scintillation); format: biochemical; details: PRMT5-MEP50 2.5 nM, histone H4 peptide 100 nM, 3H-SAM 250 nM, 60 min
Chain of PRMT5-MEP50 (O14744 whole entry): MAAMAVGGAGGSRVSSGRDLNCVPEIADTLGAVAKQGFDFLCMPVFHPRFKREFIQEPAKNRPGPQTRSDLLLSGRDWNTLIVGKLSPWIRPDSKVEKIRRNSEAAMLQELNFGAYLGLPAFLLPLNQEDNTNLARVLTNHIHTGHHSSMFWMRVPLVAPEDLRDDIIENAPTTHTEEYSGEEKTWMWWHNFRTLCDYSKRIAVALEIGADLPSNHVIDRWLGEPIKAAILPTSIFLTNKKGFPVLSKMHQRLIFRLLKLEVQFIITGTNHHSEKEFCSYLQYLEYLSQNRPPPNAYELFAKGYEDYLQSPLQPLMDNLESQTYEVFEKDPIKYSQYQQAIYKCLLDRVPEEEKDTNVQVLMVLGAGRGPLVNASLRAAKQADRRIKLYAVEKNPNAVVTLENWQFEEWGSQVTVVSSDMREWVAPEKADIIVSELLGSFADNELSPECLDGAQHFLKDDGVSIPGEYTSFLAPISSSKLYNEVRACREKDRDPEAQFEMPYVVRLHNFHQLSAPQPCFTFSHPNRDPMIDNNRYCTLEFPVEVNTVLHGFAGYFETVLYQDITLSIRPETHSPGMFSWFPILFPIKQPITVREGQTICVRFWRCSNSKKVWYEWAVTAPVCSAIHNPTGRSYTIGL
Chain of PRMT5-MEP50 (Q9BQA1 whole entry partner): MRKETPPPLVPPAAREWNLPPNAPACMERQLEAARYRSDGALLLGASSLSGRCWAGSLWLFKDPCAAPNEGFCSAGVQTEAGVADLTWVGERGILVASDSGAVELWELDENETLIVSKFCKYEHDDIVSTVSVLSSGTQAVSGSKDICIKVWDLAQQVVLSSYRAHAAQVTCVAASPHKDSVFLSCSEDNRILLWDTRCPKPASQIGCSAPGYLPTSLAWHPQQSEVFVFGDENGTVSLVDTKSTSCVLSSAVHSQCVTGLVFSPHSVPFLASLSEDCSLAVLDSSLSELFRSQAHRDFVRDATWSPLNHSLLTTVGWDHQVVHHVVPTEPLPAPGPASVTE
How it was run: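 Radiometric methyltransferase read-out: after 60 min reaction, excess unlabelled SAM (15 μM) stops turnover and biotinylated H4 peptide (100 nM) carrying 3H-methyl from 250 nM 3H-SAM is captured on streptavidin flashplates (2 h, 25° C) for scintillation counting. Enzyme, 2.5 nM PRMT5-MEP50, was preincubated 5 min with compound in pH 8.0 Tris buffer with DTT and Tween.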

MOLM-13 cells [1] = assay: MOLM-13 48 Hour cell proliferation assay (Cell Titer-Glo); format: cell-based; details: Homo sapiens
Experimental: MOLM-13 48 Hour Cell Proliferation Assay
MOLM-13 (DSMZ) cells were seeded at 1000 cells per well in a volume of 44 μL in a Falcon 384-well tissue culture treated clear bottom microplate in RPMI 1640 media containing 10% fetal bovine serum using a Multidrop Combi (ThermoFisher Scientific). Cells were incubated overnight at 37° C. in a humidified tissue culture incubator. The Mosquito® HTS Liquid Handler was used to make a compound/media intermediate plate by aliquoting […] of compound from the initial compound dilution plate (concentrations ranging from 10.0 mM to 38.0 nM in 100% DMSO) into a V bottom 384-well screen matrix plate containing 49 µL of media containing the appropriate serum (50-fold dilution, 2% DMSO). The Apricot liquid handling system was used to transfer […] compounds from the intermediate plate into the Falcon 384-well tissue culture plate containing 44 μL cells (10-point, 4-fold dilution spanning concentrations 25.0 μM to […], 0.25% DMSO final), and placed in a humidified tissue culture incubator at 37° C. After 48 hours, 25 μL of Cell Titer-Glo reagent (Promega) was added to each well using a Multidrop Combi. The plate was protected from light and placed on an IKA plate shaker for at 300 rpm for 10 minutes at room temperature. The plate was read on an EnVision plate reader (Perkin Elmer) using the Ultra Sensitive Luminescence protocol. Data analysis was performed by normalizing the raw luminescence units to an average of the positive control values for staurosporine (100% cell death) and the negative control values for DMSO (0% cell death). An IC50 was calculated using a 4-parameter logistic nonlinear regression model in GraphPad Prism.

[2] = tested on: m^6 A in cellular mRNA of MOLM-13 cells; assay: m^6 A-mRNA LC-MS/MS assay (m^6 A cellular assay); format: cell-based; details: Homo sapiens, 24 hours incubation, LC-MS/MS of m^6 A/A in mRNA
Experimental: m^6 A-mRNA LC-MS/MS Assay
5×10^6 MOLM-13 (DSMZ) cells were seeded into 10 cm dishes in RPMI 1640 media containing 10% fetal bovine serum and placed in a humidified tissue culture incubator at 37° C. overnight. Compounds were resuspended in 100% DMSO and dosed into each dish at a fixed concentration to comprise an 8-point dose response with a 4-fold serial dilution ranging from 25 μM to 1.5 nM in 0.25% DMSO final and allowed to incubate for 24 hours in a humidified tissue culture incubator at 37° C. Cells were harvested by centrifugation followed by mRNA extraction using DTRECT Dynabeads mRNA DTRECT kit (Life Technologies). mRNA was quantified on NanoDrop spectrophotometer (Thermo Fisher Scientific) and digested into single nucleosides using Nucleoside Digestion Mix (New England Biolabs). Nucleosides are quantified with retention time on a BEH […] column (Waters) and the nucleoside-to-base ion mass transition of 282.1-150.1 (m^6 A) and 268-136 (A) on an API 6500+ triple quadrupole mass spectrometer. Quantification is performed in comparison with the standard curve, obtained from pure nucleoside standards (Selleck Chemicals) running with the same batch of samples. Percentage m^6 A in cellular mRNA is calculated as 100*(m^6 A/A).

METTL1/WDR4 = METTL1/WDR4 (Homo sapiens, UniProt Q9UBP6); assay: METTL1 assay (3H-SAM flashplate scintillation); format: biochemical
Chain of METTL1/WDR4 (Q9UBP6 whole entry, species assumed): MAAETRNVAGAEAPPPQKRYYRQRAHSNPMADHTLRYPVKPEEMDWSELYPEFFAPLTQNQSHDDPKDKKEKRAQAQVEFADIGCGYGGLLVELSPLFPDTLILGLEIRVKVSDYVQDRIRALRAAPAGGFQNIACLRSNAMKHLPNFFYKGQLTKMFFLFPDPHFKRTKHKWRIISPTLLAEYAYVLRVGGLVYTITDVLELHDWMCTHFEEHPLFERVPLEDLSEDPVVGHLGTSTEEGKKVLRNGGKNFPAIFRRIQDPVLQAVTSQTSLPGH
Chain of METTL1/WDR4 (P57081 whole entry partner, species assumed): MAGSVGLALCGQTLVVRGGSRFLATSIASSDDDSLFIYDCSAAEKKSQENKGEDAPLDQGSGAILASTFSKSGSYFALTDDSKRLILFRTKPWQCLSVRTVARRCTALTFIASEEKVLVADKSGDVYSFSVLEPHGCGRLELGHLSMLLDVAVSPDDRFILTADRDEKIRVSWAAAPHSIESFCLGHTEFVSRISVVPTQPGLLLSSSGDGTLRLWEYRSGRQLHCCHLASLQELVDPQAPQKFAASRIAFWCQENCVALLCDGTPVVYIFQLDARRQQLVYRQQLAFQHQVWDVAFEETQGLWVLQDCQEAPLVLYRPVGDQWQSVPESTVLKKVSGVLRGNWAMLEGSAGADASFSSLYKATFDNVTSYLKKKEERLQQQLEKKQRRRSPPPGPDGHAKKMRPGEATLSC
How it was run: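 Radiometric methyltransfer by METTL1/WDR4 (6.25 nM f.c., 5 min preincubation) at ambient temperature in HEPES pH 7.5, KCl, MgCl2, DTT; started with 25 nM 3′-biotinylated RNA and 60 nM 3H-SAM, run 20 min, quenched with 15 μM cold SAM. Product captured on streptavidin flashplates (2 h, 25° C), counted by scintillation.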

MOLM-13 cells [3] = assay: MOLM-13 96 Hour cell proliferation assay (Cell Titer-Glo); format: cell-based; details: Homo sapiens
How it was run: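 MOLM-13 cells were seeded at 600 cells/well in RPMI 1640 with 10% FBS, then incubated overnight. Compounds were added at 0.25% DMSO final for 96 h at 37° C, with CellTiter-Glo luminescence read-out. Values normalized to staurosporine (100% death) and DMSO (0%); IC50 from 4-parameter logistic fit.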

METTL16 = target: T1, METTL16 (Homo sapiens, UniProt Q86W50); assay: METTL16 assay (3H-SAM flashplate scintillation); format: biochemical; details: METTL16 100 nM, RNA 50 nM, 3H-SAM 200 nM, SAM 800 nM, 20 min
T1 sequence (Q86W50 1-562): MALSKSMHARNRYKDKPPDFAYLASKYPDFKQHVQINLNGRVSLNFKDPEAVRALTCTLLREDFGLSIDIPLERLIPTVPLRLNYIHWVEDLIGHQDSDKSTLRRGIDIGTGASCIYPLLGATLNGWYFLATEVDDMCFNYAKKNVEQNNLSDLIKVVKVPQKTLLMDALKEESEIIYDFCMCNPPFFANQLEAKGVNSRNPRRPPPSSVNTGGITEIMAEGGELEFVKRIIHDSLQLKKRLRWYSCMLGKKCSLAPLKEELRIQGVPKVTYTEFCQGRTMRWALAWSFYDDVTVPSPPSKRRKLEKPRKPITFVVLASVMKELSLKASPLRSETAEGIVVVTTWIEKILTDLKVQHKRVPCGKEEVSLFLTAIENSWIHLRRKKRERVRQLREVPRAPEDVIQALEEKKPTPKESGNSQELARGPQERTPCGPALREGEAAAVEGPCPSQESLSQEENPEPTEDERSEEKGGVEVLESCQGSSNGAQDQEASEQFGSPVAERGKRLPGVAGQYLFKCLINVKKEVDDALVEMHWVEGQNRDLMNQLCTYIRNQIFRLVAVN
How it was run: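 Radiometric methyltransferase reaction at ambient temperature in 20 mM HEPES pH 7.5, 50 mM KCl, 1 mM DTT, with 100 nM enzyme preincubated 5 min with compound. It was started with 50 nM 3′-biotinylated RNA, 200 nM 3H-SAM plus 800 nM cold SAM, run 20 min, then quenched with excess cold SAM. Product was captured on streptavidin flashplates and scintillation-counted.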

[4] = METTL1/WDR4 6.25 nM, RNA 25 nM, 3H-SAM 60 nM, 20 min, read-out: METTL1 IC50

Chain of METTL3/METTL14 (Q86U44 whole entry, species assumed): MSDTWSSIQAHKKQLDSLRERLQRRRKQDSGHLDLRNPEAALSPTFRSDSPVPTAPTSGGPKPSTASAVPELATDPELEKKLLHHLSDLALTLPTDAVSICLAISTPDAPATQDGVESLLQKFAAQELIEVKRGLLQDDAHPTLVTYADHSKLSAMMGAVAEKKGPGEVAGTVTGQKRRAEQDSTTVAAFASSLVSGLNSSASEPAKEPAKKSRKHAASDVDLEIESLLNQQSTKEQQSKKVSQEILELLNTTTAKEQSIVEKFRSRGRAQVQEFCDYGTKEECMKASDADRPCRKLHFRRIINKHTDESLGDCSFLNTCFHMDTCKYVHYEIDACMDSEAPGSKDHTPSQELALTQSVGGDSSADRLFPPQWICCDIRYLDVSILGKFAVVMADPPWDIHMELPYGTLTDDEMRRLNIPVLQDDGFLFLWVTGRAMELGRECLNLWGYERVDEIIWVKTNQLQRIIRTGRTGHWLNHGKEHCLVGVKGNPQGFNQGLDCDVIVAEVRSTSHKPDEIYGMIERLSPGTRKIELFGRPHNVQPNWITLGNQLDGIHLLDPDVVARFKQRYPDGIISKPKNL
Chain of METTL3/METTL14 (Q9HCE5 whole entry partner, species assumed): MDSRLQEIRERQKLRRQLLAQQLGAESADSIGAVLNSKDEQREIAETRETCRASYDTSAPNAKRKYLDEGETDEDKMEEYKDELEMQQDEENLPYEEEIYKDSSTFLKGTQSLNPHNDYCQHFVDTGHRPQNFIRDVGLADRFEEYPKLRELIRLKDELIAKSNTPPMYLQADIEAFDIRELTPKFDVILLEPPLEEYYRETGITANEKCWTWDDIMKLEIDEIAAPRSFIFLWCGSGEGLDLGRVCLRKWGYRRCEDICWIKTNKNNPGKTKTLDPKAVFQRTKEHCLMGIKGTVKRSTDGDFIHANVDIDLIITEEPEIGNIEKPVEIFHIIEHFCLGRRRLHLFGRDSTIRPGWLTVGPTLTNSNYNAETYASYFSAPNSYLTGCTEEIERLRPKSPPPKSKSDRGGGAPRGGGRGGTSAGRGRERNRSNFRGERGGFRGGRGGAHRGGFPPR

Row | Structure (SMILES) | pIC50 (METTL3/METTL14) | pIC50 (PRMT5-MEP50) | pIC50 (MOLM-13 cells [1]) | pIC50 [2] | pIC50 (METTL1/WDR4) | pIC50 (MOLM-13 cells [3]) | pIC50 (METTL1/WDR4; [4]) | pIC50 (METTL16)
1 | CNc1ccc2ccc(CCc3cncc(-n4cc(-c5ccn(C)n5)c5c(N)ncnc54)c3)cc2n1 [Compound I-1, 7-(2-(5-(4-amino-5-(1-methyl-1H-pyrazol-3-yl)-7H-pyrrolo[2,3-d]pyrimidin-7-yl)pyridin-3-yl)ethyl)-N-methylquinolin-2-amine] | > 8.00 | < 6.00 | > 6.00 | > 6.00 | < 6.00 | – | – | –
2 | CNc1ccc2ccc(OCc3cc(CO)cc(-n4ccc5c(N)ncnc54)c3)cc2n1 [Compound I-6] | > 8.00 | < 6.00 | ≤ 5.00 | – | – | 5.00 to 6.00 | < 6.00 | –
3 | CCc1cc(NCCOC)c2ccc(OCc3cncc(-c4c[nH]c5c(N)ncnc45)c3)cc2n1 [Compound I-7] | > 8.00 | < 6.00 | ≤ 5.00 | – | – | – | < 6.00 | –
4 | CNc1ccc2ccc(OCc3cc(CO)cc(-c4c[nH]c5c(N)ncnc45)c3)cc2n1 [Compound I-10] | > 8.00 | < 6.00 | ≤ 5.00 | ≤ 5.00 | – | – | < 6.00 | –
5 | CCc1cc(N)c2ccc(OCc3cncc(-n4cc(C5CCCC5)c5c(N)ncnc54)c3)cc2n1 [Compound I-11] | > 8.00 | < 6.00 | > 6.00 | 5.00 to 6.00 | – | – | < 6.00 | –
6 | CC(C)c1cc(N)c2ccc(OCc3cncc(-n4ccc5c(N)ncnc54)c3)cc2n1 [Compound I-12] | > 8.00 | < 6.00 | 5.00 to 6.00 | – | – | 5.00 to 6.00 | < 6.00 | –
7 | CNc1ccc2ccc(OCc3cncc(-n4ccc5c(N)ncnc54)n3)cc2n1 [Compound I-14] | > 8.00 | < 6.00 | 5.00 to 6.00 | 5.00 to 6.00 | – | – | < 6.00 | –
8 | CCc1cc(NCCN(C)C)c2ccc(OCc3cncc(-n4ccc5c(N)ncnc54)c3)cc2n1 [Compound I-15] | > 8.00 | < 6.00 | 5.00 to 6.00 | – | – | – | < 6.00 | –
9 | CCc1cc(NCCOC)c2ccc(OCc3cncc(-n4ccc5c(N)ncnc54)c3)cc2n1 [Compound I-16] | > 8.00 | < 6.00 | 5.00 to 6.00 | 5.00 to 6.00 | – | – | < 6.00 | –
10 | CNc1ccc2ccc(OCc3cncc(-n4cc(C)c5c(N)ncnc54)c3)cc2n1 [Compound I-17] | > 8.00 | < 6.00 | > 6.00 | ≤ 5.00 | – | – | < 6.00 | –
11 | CNc1ccc2ccc(OCc3cncc(-c4cn(C5CCCC5)c5c(N)ncnc45)c3)cc2n1 [Compound I-18] | > 8.00 | < 6.00 | 5.00 to 6.00 | 5.00 to 6.00 | – | – | < 6.00 | –
12 | CNc1ccc2ccc(OCc3cncc(-c4c(C)[nH]c5c(N)ncnc45)c3)cc2n1 [Compound I-25] | > 8.00 | < 6.00 | ≤ 5.00 | ≤ 5.00 | – | – | – | < 6.00
13 | Cc1cc(NCCN(C)C)c2ccc(OCc3cncc(-n4cc(Cl)c5c(N)ncnc54)c3)cc2n1 [Compound I-42] | 7.00 to 8.00 | < 6.00 | > 6.00 | – | – | – | – | < 6.00
14 | CCc1cc(N)c2ccc(OCc3cncc(-n4ccc5c(N)ncnc54)c3)cc2n1 [Compound I-45] | > 8.00 | < 6.00 | ≤ 5.00 | ≤ 5.00 | – | – | – | < 6.00
15 | CNc1ccc2ccc(OCc3cncc(-c4c[nH]c5c(N)ncnc45)c3)cc2n1 [Compound I-47, 7-[(5-{4-amino-5H-pyrrolo[3,2-d]pyrimidin-7-yl}pyridin-3-yl)methoxy]-N-methylquinolin-2-amine] | > 8.00 | < 6.00 | ≤ 5.00 | ≤ 5.00 | – | – | – | < 6.00
16 | CC(C)c1cc(N2CCNCC2)c2ccc(OCc3cncc(-n4ccc5c(N)ncnc54)c3)cc2n1 [Compound I-95] | > 8.00 | < 6.00 | – | 5.00 to 6.00 | – | > 6.00 | < 6.00 | –
